The values below come from ChEMBL document CHEMBL3526096, “Species differences in biliary clearance and possible relevance of hepatic uptake and efflux transporters involvement” (Drug Metab Dispos, 2013).

Series [1] in a line: Drug excretion in human assessed as compound excreted into bile at 20 mg, iv after 24 hrs by T-tube method. Format: ADME, organism-based. Conditions: read-out: Drug excretion.
Series [2] relates to Homo sapiens. Kind of series: Total biliary clearance in human at 20 mg, iv after 24 hrs by T-tube method. In kind it is ADME, organism-based, Bile. As to conditions: in vivo.
The subject of series [3] is Rattus norvegicus. The series is described as follows: Unbound biliary clearance in Sprague-Dawley rat at 8 uCi, iv. In kind it is ADME, organism-based, Bile. Conditions: in vivo.
Series [4] deals with Rattus norvegicus. Kind of series: Total biliary clearance in Sprague-Dawley rat at 8 uCi, iv. As to conditions: in vivo. In kind it is ADME, organism-based, Bile.
Series [5] deals with Homo sapiens. Kind of series: Unbound biliary clearance in human at 20 mg, iv after 24 hrs by T-tube method. Format: ADME, organism-based, Bile. Conditions: in vivo.
Series [6] can be described thus: Drug excretion in human assessed as compound excreted into bile at 50 mg, iv after 24 hrs by T-tube method. In kind it is ADME, organism-based. As to conditions: read-out: Drug excretion.
A short description of series [7]: Drug excretion in iv dosed rat assessed as compound excreted into bile. In kind it is ADME, organism-based. As to conditions: read-out: Drug excretion.
The test system of series [8] is Canis familiaris. The series is described as follows: Unbound biliary clearance in iv dosed dog. Format: ADME, organism-based, Canis lupus familiaris, Bile. As to conditions: in vivo.
The test system of series [9] is Rattus norvegicus. The series is described as follows: Unbound biliary clearance in Wistar rat at 10 mg/kg, iv. Format: ADME, organism-based, Bile. Further details: dose 10 mg/kg, route intravenous. As to conditions: in vivo.
Series [10] has as its system Homo sapiens. Kind of series: Unbound biliary clearance in iv dosed human after 20 hrs. Format: ADME, organism-based, Bile. As to conditions: in vivo.
Series [11] in a line: Drug excretion in iv dosed human assessed as compound excreted into bile after 20 hrs. In kind it is ADME, organism-based. As to conditions: read-out: Drug excretion.
The nature of series [12]: Drug excretion in Wistar rat assessed as compound excreted into bile at 10 mg/kg, iv. Further details: dose 10 mg/kg, route intravenous. Format: ADME, organism-based. As to conditions: read-out: Drug excretion.
A short description of series [13]: Drug excretion in iv dosed dog assessed as compound excreted into bile. Format: ADME, organism-based, Canis lupus familiaris. Conditions: read-out: Drug excretion.
In series [14] the test system is Canis familiaris. Kind of series: Total biliary clearance in iv dosed dog. Conditions: in vivo. Format: ADME, organism-based, Canis lupus familiaris, Bile.
Series [15] has as its system Rattus norvegicus. Kind of series: Total biliary clearance in Wistar rat at 10 mg/kg, iv. In kind it is ADME, organism-based, Bile. Details: dose 10 mg/kg, route intravenous. As to conditions: in vivo.
Series [16] relates to Homo sapiens. The series is described as follows: Total biliary clearance in iv dosed human after 20 hrs by duodenal aspiration method. As to conditions: in vivo. Format: ADME, organism-based, Bile.
Series [17] in a line: Drug excretion in human assessed as compound excreted into bile at 60 mg, po after 12 hrs by fecal extraction method.
Series [18] is described as follows: Drug excretion in iv dosed Wistar rat assessed as compound excreted into bile. In kind it is ADME, organism-based. As to conditions: read-out: Drug excretion.
The subject of series [19] is Rattus norvegicus. Kind of series: Unbound biliary clearance in Sprague-Dawley rat at 300 mg/kg, iv. Format: ADME, organism-based, Bile. Details: dose 300 mg/kg, route intravenous. As to conditions: in vivo.
Series [20] concerns Homo sapiens. The series is described as follows: Total biliary clearance in human at 1 gm, iv after 8 hrs by T-tube method. As to conditions: in vivo. In kind it is ADME, organism-based, Bile.
Series [21] relates to Homo sapiens. Kind of series: Unbound biliary clearance in human at 1 gm, iv after 8 hrs by T-tube method. Format: ADME, organism-based, Bile. Conditions: in vivo.
In series [22] the test system is Rattus norvegicus. Kind of series: Total biliary clearance in Sprague-Dawley rat at 300 mg/kg, iv. As to conditions: in vivo. In kind it is ADME, organism-based, Bile. Further details: dose 300 mg/kg, route intravenous.
A short description of series [23]: Drug excretion in Sprague-Dawley rat assessed as compound excreted into bile at 300 mg/kg, iv. In kind it is ADME, organism-based. Further details: dose 300 mg/kg, route intravenous. Conditions: read-out: Drug excretion.
Series [24] in a line: Drug excretion in human assessed as compound excreted into bile at 1 gm, iv after 8 hrs by T-tube method. In kind it is ADME, organism-based. Conditions: read-out: Drug excretion.
Series [25] can be described thus: Drug excretion in po dosed human assessed as compound excreted into bile after 24 hrs by T-tube method. In kind it is ADME, organism-based. Conditions: read-out: Drug excretion.
Series [26] is described as follows: Drug excretion in human assessed as compound excreted into bile at 400 mg, po after 24 hrs by T-tube method.
Series [27] in a line: Drug excretion in rat assessed as compound excreted into bile at 10 mg/kg, iv.
Series [28] relates to Homo sapiens. The series is described as follows: Unbound biliary clearance in iv dosed human after 24 hrs by T-tube method. Conditions: in vivo. Format: ADME, organism-based, Bile.
Series [29] relates to Homo sapiens. Kind of series: Total biliary clearance in iv dosed human after 24 hrs by T-tube method. Format: ADME, organism-based, Bile. As to conditions: in vivo.
Series [30] deals with Rattus norvegicus. The series is described as follows: Unbound biliary clearance in iv dosed rat. Format: ADME, organism-based, Bile. Conditions: in vivo.
The nature of series [31]: Drug excretion in iv dosed human assessed as compound excreted into bile after 24 hrs by T-tube method. Format: ADME, organism-based. As to conditions: read-out: Drug excretion.
The test system of series [32] is Rattus norvegicus. The series is described as follows: Total biliary clearance in iv dosed rat. In kind it is ADME, organism-based, Bile. Conditions: in vivo.
In series [33] the test system is Canis familiaris. Kind of series: Total biliary clearance in beagle dog at 20 mg/kg, iv. As to conditions: in vivo. Format: ADME, organism-based, Canis lupus familiaris, Bile. Further details: dose 20 mg/kg, route intravenous.
Series [34] is described as follows: Drug excretion in iv dosed human assessed as compound excreted into bile after 6 to 8 hrs by duodenal perfusion method. Format: ADME, organism-based. As to conditions: read-out: Drug excretion.
Series [35] in a line: Drug excretion in Sprague-Dawley rat assessed as compound excreted into bile at 20 mg/kg, iv. Conditions: read-out: Drug excretion. Format: ADME, organism-based. Details: dose 20 mg/kg, route intravenous.
Series [36] in a line: Drug excretion in beagle dog assessed as compound excreted into bile at 20 mg/kg, iv. In kind it is ADME, organism-based, Canis lupus familiaris. Further details: dose 20 mg/kg, route intravenous. Conditions: read-out: Drug excretion.
In series [37] the test system is Homo sapiens. Kind of series: Unbound biliary clearance in iv dosed human after 6 to 8 hrs by duodenal perfusion method. Conditions: in vivo. In kind it is ADME, organism-based, Bile.
Series [38] concerns Canis familiaris. Kind of series: Unbound biliary clearance in beagle dog at 20 mg/kg, iv. Format: ADME, organism-based, Canis lupus familiaris, Bile. Further details: dose 20 mg/kg, route intravenous. Conditions: in vivo.
In series [39] the test system is Homo sapiens. Kind of series: Total biliary clearance in iv dosed human after 6 to 8 hrs by duodenal perfusion method. In kind it is ADME, organism-based, Bile. As to conditions: in vivo.
Series [40] deals with Rattus norvegicus. Kind of series: Unbound biliary clearance in Sprague-Dawley rat at 20 mg/kg, iv. In kind it is ADME, organism-based, Bile. Conditions: in vivo. Further details: dose 20 mg/kg, route intravenous.
The subject of series [41] is Rattus norvegicus. The series is described as follows: Total biliary clearance in Sprague-Dawley rat at 20 mg/kg, iv. Details: dose 20 mg/kg, route intravenous. As to conditions: in vivo. In kind it is ADME, organism-based, Bile.

As for `CCCCC(=O)N(Cc1ccc(-c2ccccc2-c2nnn[nH]2)cc1)[C@H](C(=O)O)C(C)C`, in series [1], the dose excreted at 24 h is 88%. In addition, the CL in series [2] was determined as 0.431 mL/min/kg; in [4] it was 12.5 mL/min/kg. The CL free in series [3] was determined as 378.8 mL/min/kg; in [5] it was 10.775 mL/min/kg.

For `CNC(=C[N+](=O)[O-])NCCSCc1ccc(CN(C)C)o1` [RANITIDINE], the dose excreted at 24 h in series [6] is 1.5%. In [7], the dose excreted came out at 5%.

Turning to `CC[C@H]1OC(=O)[C@H](C)[C@@H](O[C@H]2C[C@@](C)(OC)[C@@H](O)[C@H](C)O2)[C@H](C)[C@@H](O[C@@H]2O[C@H](C)C[C@H](N(C)C)[C@H]2O)[C@](C)(O)C[C@@H](C)C(=O)[C@H](C)[C@@H](O)[C@]1(C)O` [ERYTHROMYCIN], the CL free was 4.483 mL/min/kg in series [8], 22.38 mL/min/kg in [9] and 7.169 mL/min/kg in [10]. The dose excreted at 20 h in series [11] worked out at 13%. The dose excreted was determined as 30% in series [12] and 5% in [13]. In addition, the CL in series [14] was 2.376 mL/min/kg; in series [15], 17.4 mL/min/kg; in series [16] it was 1.147 mL/min/kg.

For the compound `CC(C)(C(=O)O)c1ccc(C(O)CCCN2CCC(C(O)(c3ccccc3)c3ccccc3)CC2)cc1` (stereo not drawn) [FEXOFENADINE], the dose excreted at 12 h in [17] is 23%. For the same compound, the dose excreted in [18] worked out at 28%.

As to `CO[C@@]1(NC(=O)C(C(=O)O)c2ccc(O)cc2)C(=O)N2C(C(=O)O)=C(CSc3nnnn3C)CO[C@@H]21` (stereo partly drawn) [MOXALACTAM], the CL free came out at 4.294 mL/min/kg in series [19] and 12 mL/day/kg in series [21]. Also, the CL in series [20] came out at 4.3 mL/day/kg; in series [22], 2.19 mL/min/kg. Further, the dose excreted in [23] was 25%. Further, in series [24], the dose excreted at 8 h was determined as 0.5%.

For the compound `CCC(=O)C(CC(C)N(C)C)(c1ccccc1)c1ccccc1` (stereo not drawn) [METHADONE], the dose excreted at 24 h in [25] turned out to be 0.06%. Further, the dose excreted in series [7] was 9%.

Turning to `O=C(O)c1cn(C2CC2)c2cc(N3CCNCC3)c(F)cc2c1=O` [CIPROFLOXACIN], in series [26], the dose excreted at 24 h worked out at 0.5%. Further, the dose excreted in series [27] worked out at 10%.

As to `CC[C@H](C)C(=O)O[C@H]1C[C@H](O)C=C2C=C[C@H](C)[C@H](CC[C@@H](O)C[C@@H](O)CC(=O)O)[C@H]21` [PRAVASTATIN], the CL free was determined as 6.21 mL/min/kg in [28] and 78.57 mL/min/kg in series [30]. Besides, the CL is 3.105 mL/min/kg in series [29] and 27.5 mL/min/kg in series [32]. In addition, the dose excreted at 24 h in series [31] came out at 23%. Moreover, in [7], the dose excreted turned out to be 40%.

Regarding `CO/N=C(\C(=O)N[C@@H]1C(=O)N2C(C(=O)O)=C(CSc3nc(=O)c(=O)[nH]n3C)CS[C@H]12)c1csc(N)n1` [CEFTRIAXONE], the CL in [33] amounted to 2.5 mL/min/kg; in [39], 4.2 mL/h/kg; in series [41], 0.82 mL/min/kg. Moreover, the dose excreted in series [34] was found to be 30%; in series [35] it was 62%; in series [36] it was 63%. The CL free was found to be 0.933 mL/min/kg in series [37], 2.907 mL/min/kg in [38] and 12.73 mL/min/kg in series [40].
